The test has as its target ATP-dependent translocase ABCB1 (Homo sapiens, UniProt P08183). The test is described as follows: TP_TRANSPORTER: inhibition of Hydroxydoxorubicin efflux in K562/Adr cells. The class given is functional, cell-based.

ATP-dependent translocase ABCB1, sequence (P08183 whole entry): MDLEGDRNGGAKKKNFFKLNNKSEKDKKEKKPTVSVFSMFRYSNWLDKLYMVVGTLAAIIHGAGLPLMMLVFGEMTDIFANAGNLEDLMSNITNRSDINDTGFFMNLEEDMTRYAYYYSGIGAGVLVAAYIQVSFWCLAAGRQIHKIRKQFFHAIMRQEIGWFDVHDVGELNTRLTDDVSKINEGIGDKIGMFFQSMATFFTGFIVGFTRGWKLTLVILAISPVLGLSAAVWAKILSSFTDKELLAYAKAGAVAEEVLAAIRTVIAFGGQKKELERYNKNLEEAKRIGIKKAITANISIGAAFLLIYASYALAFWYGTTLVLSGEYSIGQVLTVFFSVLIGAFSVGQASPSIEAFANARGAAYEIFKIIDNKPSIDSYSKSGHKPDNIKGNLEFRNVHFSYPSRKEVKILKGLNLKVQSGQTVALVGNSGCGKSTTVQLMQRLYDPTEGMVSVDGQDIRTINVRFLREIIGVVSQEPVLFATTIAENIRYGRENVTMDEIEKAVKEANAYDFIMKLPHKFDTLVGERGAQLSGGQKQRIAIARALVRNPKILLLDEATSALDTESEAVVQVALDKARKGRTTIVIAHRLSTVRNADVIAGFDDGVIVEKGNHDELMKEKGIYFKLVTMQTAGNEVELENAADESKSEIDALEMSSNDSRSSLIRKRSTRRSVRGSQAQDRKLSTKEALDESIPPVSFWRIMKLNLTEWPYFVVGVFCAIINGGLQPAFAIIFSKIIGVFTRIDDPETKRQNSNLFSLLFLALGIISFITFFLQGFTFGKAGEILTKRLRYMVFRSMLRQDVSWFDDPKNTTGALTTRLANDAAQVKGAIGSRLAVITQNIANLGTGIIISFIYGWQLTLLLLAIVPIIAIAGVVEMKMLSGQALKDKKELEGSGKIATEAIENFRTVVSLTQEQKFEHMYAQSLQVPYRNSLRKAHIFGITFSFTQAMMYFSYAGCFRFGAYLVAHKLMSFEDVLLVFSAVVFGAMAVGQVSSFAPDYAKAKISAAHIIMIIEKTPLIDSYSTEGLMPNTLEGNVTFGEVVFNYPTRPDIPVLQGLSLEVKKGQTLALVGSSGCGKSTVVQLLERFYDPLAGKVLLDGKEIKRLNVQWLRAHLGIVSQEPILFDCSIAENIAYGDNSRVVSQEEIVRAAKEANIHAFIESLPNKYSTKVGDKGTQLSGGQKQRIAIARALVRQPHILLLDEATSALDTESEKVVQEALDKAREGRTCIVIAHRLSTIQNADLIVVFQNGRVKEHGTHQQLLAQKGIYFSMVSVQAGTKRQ

For orientation: Ki means a measure of affinity in units of concentration, obtained from inhibition or displacement. As for `Cc1nc(C)c(P2(=O)O[C@H](C)C[C@@H](C)O2)c(-c2cccc([N+](=O)[O-])c2)c1C(=O)OCCN1CCN(C(c2ccccc2)c2ccccc2)CC1` (stereo partly specified), the affinity corresponds to a Ki of 0.21 µM.

(Values after ChEMBL document CHEMBL2074087, “Inhibition of the P-glycoprotein- and multidrug resistance protein-mediated efflux of anthracyclines and calceinacetoxymethyl ester by PAK-104P” (Eur J Pharmacol, 2000).)
